Measurements taken from US7186829B1, “Aryl-substituted heterocyclic enaminones” (Bayer Aktiengesellschaft, priority 1999, dated 2007).

Key:
[1] = test system: Heliothis virescens caterpillars; assay: Heliothis virescens test; type: in vivo; details: soya bean shoots (Glycine max) dipped; result in words
Method: Heliothis virescens test • Solvent: 30 parts by weight of dimethylformamide • Emulsifier: 1 part by weight of alkylaryl polyglycol ether To produce a suitable preparation of active compound, 1 part by weight of active compound is mixed with the stated amounts of solvent and emulsifier, and the concentrate is diluted with emulsifier-containing water to the desired concentration. Soya bean shoots (Glycine max) are treated by being dipped into the preparation of active compound of the desired concentration and populated with Heliothis virescens caterpillars while the leaves are still moist. After the desired period of time, the kill in % is determined. 100% means that all caterpillars have been killed; 0% means that none of the caterpillars have been killed.

[2] = test system: larva (L3) of the army worm (Spodoptera frugiperda); assay: Spodoptera frugiperda test; type: in vivo; details: preparation pipetted onto synthetic feed, result in words
Method: Spodoptera frugiperda test • Solvent: 31 parts by weight of dimethylformamide • Emulsifier: 1 part by weight of alkylaryl polyglycol ether To produce a suitable preparation of active compound, 1 part by weight of active compound is mixed with the stated amount of solvent and the stated amount of emulsifier, and the concentrate is diluted with emulsifier-containing water to the desired concentration. A stated amount of the preparation of active compound of the desired concentration is pipetted onto a standardized amount of synthetic feed. In 6 repetitions, in each case one larva (L3) of the army worm (Spodoptera frugiperda) is placed on the feed. After the desired period of time, the kill in % is determined. 100% means that all animals have been killed; 0% means that none of the animals have been killed.

[3] = test system: common spider mite (Tetranychus urticae); assay: Tetranychus test (OP resistent/dip treatment); type: in vivo; details: bean plants (Phaseolus vulgaris) infested by all stages, dip treatment, OP resistent; result in words
Method: Tetranychus test (OP resistent/dip treatment) • Solvent: 30 parts by weight of dimethylformamide • Emulsifier: 1 part by weight of alkylaryl polyglycol ether To produce a suitable preparation of active compound, 1 part by weight of active compound is mixed with the stated amounts of solvent and emulsifier, and the concentrate is diluted with emulsifier-containing water to the desired concentration. Bean plants (Phaseolus vulgaris) which are heavily infested by all stages of the common spider mite (Tetranychus urticae) are dipped into a preparation of active compound of the desired concentration. After the desired period of time, the kill in % is determined. 100% means that all spider mites have been killed; 0% means that none of the spider mites have been killed.

[4] = test system: larvae of the mustard beetle (Phaedon cochleariae); assay: Phaedon larvae test; type: in vivo; details: cabbage leaves (Brassica oleracea) dipped into preparation of active compound; result in words
Method: Phaedon larvae test • Solvent: 31 parts by weight of dimethylformamide • Emulsifier: I part by weight of alkylaryl polyglycol ether To produce a suitable preparation of active compound, 1 part by weight of active compound is mixed with the stated amounts of solvent and emulsifier, and the concentrate is diluted with emulsifier-containing water to the desired concentration. Cabbage leaves (Brassica oleracea) are treated by being dipped into the preparation of active compound of the desired concentration and populated with larvae of the mustard beetle (Phaedon cochleariae) while the leaves are still moist. After the desired period of time, the kill in % is determined. 100% means that all beetle larvae have been killed; 0% means that none of the beetle larvae have been killed.

melting point | SMILES | also measured
119 °C | CC1OCCN/C1=C(/C#N)C(=O)c1cc(-c2ccc(Cl)cc2)cc(C(F)(F)F)c1 (centres unmarked) [I-1-a-37, 3-[3-(4-chlorophenyl)-5-trifluoromethylphenyl]-2-(2-methyl-1,4-oxazinon-3-ylidene)-3-oxopropionitrile] | –
192 °C | N#CC(C(=O)c1ccc(Cl)cc1)=C1COCCN1 [I-1-a-5, 3-(4-chlorophenyl)-2-(1,4-oxazinan-3-ylidene)-3-oxo-propionitrile] | –
224 to 226 °C | N#C/C(C(=O)c1cc(C(F)(F)F)cc(C(F)(F)F)c1)=C1\CS(=O)(=O)CCN1 [I-1-a-15, 3-[3,5-bis(trifluoromethyl)phenyl]-2-(1,1-dioxo-Iλ^6,4-thiazinan-3-ylidene)-3-oxo-propionitrile] | –
136 °C | CCC1COC(C)/C(=C(\C#N)C(=O)c2ccc(Cl)cc2)N1 (centres unmarked) [I-1-a-1, 3-(4-chlorophenyl)-2-(5-ethyl-2-methyl-1,4-oxazinon-3-ylidene)-3-oxopropionitrile] | –
142 °C | CC1OCCNC1=C(C#N)C(=O)c1cc(C(F)(F)F)cc(C(F)(F)F)c1 (centres unmarked) [I-1-a-14, 3-[3,5-bis(trifluoromethyl)phenyl]-2-(2-methyl-1,4-oxazinan-3-ylidene)-3-oxopropionitrile] | activity (kill in %) against Heliothis virescens caterpillars [1]: good activity; activity (kill in %) against Spodoptera frugiperda larvae [2]: good activity
182 °C | N#CC(C(=O)c1cc(C(F)(F)F)cc(C(F)(F)F)c1)=C1CSCCN1 [I-1-a-10, 3-[3,5-bis(trifluoromethyl)phenyl]-2-(1,4-thiazinan-3-ylidene)-3-oxo-propionitrile] | activity (kill in %) against Tetranychus urticae [3]: good activity; activity (kill in %) against Phaedon cochleariae larvae [4]: good activity
195 °C | CC1OCCN/C1=C(/C#N)C(=S)c1cc(C(F)(F)F)cc(C(F)(F)F)c1 (centres unmarked) [I-1-a-2, 3-[3,5-bis(trifluoromethyl)phenyl]-2-(2-methyl-1,4-oxazinan-3-ylidene)-3-thioxopropionitrile] | –
